Measured values from article PMC6151435, “Bioactivity In Vitro of Quercetin Glycoside Obtained in Beauveria bassiana Culture and Its Interaction with Liposome Membranes” (Molecules : A Journal of Synthetic Chemistry and Natural …, 2017).
Like-named read-outs stand apart in the source and are kept apart here.

How the values were obtained:
[1] = Fluorescence measurements with MC540, TMA-DPH and DPH probes in liposome membranes; details: concentration 1–10 μM
Experimental: (§1) Small unilamellar liposomes (SUV) consisted of phosphatidylcholine (egg-PC) were prepared in accordance with the methodology described by Gabrielska and Oszmiański. The lipids were dissolved in chloroform (100 mg/mL), evaporated to dryness under nitrogen and under vacuum for another 60 min. Subsequently, a phosphate buffer […] of pH 7.4 was added and liposomes were formed by mechanical shaking. Then SUVs were formed using a 20 kHz sonicator for 15 min. During sonication the samples were thermostated at 0–2 °C. In the study, PC liposomes at a concentration of 0.1 mg/mL in phosphate buffer (pH 7.4) were used. Liposomes prepared according to the presented-above procedure were used to determine the antioxidative activity and in fluorometric studies.
The Q 7-MeGlu and Q effect on the hydrophilic and hydrophobic properties of the membrane was determined using the fluorometric method applying the MC540, TMA-DPH and DPH fluorescence probes according to the procedure described by Strugała et al.. Merocyanine 540 (MC540) is a probe that partitions into the membrane and orients parallel to the glycerol backbones of the lipids. The fluorescence intensity of MC540 emission was determined and expressed as relative intensity change in relation to control as a function of studied compounds concentration. The TMA-DPH and DPH probes are supposed to distribute in the hydrophobic part of the bilayer. All the fluorescent probes were used at 1 μM concentration. The DPH and TMA-DPH stock solutions were prepared in DMF, while the probe MC540 was dissolved in methanol. Liposomes were prepared according to procedure described in Section 3.6.1. […] Fluorescence anisotropy for TMA-DPH and DPH was calculated using the following equation [64]:(5) A=I∥−GI⊥/I∥+2GI⊥ where I∥ and I⊥ are fluorescence intensities observed in directions parallel and perpendicular, respectively to the polarization plane of the exciting wave. […]
The fluorescence experiment was conducted using a Cary Eclipse fluorimeter (Varian, Palo Alto, CA, USA). […]

[2] = Liposome oxidation assay (AAPH-induced oxidation, DPH-PA probe); type: biochemical; details: for IC50: 30 min oxidation, 37 °C, pH 7.4, read-out: IC50 AAPH PC (inhibition of AAPH induced oxidation of phosphatidylcholine liposomes)
Experimental: as §1
Antioxidant activities of Q 7-MeGlu and Q were determined using a fluorometric method described earlier by Strugała et al. with minor modifications. The studies were carried out on PC liposomes, which contained the fluorescent probe DPH-PA. Use was made of the relationship between DPH-PA fluorescence intensity and concentration of free radicals. The probe’s fluorescence decreased with its rising oxidation caused by free radicals, supplied by AAPH. Molecules of this compound underwent thermal decomposition into two free radicals each. The value of relative intensity of DPH-PA fluorescence was adopted as a measure of the degree of lipid membrane oxidation. It was calculated as a ratio of fluorescence intensity after 30 min of oxidation in the presence of antioxidants to the initial value of the intensity. The studied polyphenolic compounds scavenged free radicals and thus caused a lower rate of DPH-PA fluorescence decrease. PC liposomes at a concentration of 0.1 mg/mL in phosphate buffer (pH 7.4) were used, incubated for 0.5 h in darkness with addition of DPH-PA probe at a concentration of 1 µM (stock solutions were prepared in DMF). […] The wavelengths of excitation and emission for the probe were as follows: λex = 355 nm, λem = 430 nm. Oxidation was initiated just before measurement, using AAPH at a concentration of […] (dissolved in water) at 37 °C (control sample), or in the presence of test substances (Q 7-MeGlu and Q). The concentrations of studied compounds fluctuated in the range 3–7 µM for Q 7-MeGlu and 2–5 µM for Q. The measurements were conducted with a Cary Eclipse fluorimeter.

COX-2 = target: T1, COX-2 (Homo sapiens, UniProt P35354); assay: Inhibition of cyclooxygenase 2 (spectrophotometric, TMPD); type: biochemical
T1 construct: purchased Sigma-Aldrich
T1 sequence (P35354 18-604): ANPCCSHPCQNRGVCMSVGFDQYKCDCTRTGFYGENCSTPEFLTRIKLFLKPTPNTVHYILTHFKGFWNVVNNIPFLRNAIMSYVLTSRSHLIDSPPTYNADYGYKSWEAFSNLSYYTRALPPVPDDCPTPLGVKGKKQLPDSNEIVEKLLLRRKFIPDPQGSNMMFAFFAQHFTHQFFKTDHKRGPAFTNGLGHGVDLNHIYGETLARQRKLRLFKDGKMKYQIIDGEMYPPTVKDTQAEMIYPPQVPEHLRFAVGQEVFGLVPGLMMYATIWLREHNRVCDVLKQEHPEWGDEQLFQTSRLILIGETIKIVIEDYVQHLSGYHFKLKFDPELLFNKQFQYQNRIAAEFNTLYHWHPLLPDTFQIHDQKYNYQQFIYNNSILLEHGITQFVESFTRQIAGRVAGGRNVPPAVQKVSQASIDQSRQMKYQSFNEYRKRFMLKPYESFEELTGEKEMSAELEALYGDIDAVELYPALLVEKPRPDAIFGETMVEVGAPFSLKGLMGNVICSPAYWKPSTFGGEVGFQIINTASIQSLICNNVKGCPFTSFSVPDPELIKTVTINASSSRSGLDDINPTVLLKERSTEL
Source text: The probes 1,6-diphenyl-1,3,5-hexatriene (DPH), 3-[p-(6-phenyl)-1,3,5-hexatrienyl]propionic acid (DPH-PA), Merocyanine 540 (MC540), and N,N,N-trimethyl-4-(6-phenyl-1,3,5-hexatrien-1-yl)phenylammonium p-toluenesulfonate (TMA-DPH) were purchased from Molecular Probes (Eugene, OR, USA). Tris (hydroxymethyl) aminomethane (Tris:HCl) were obtained from “Chempur” (Piekary Śląskie, Poland). Quercetin (Q) was purchased from Sigma-Aldrich.
This experiment, established on the basis of a modified method given in the work by Jang and Pezzuto [68], was conducted by a spectrophotometric measurement of inhibition of the cyclooxygenases’ activity COX-1 and COX-2. […] To initiate the reaction, arachidonic acid was added at a concentration of 35 mM. The final volume of the sample was 1 mL. […] The measurements were carried out at room temperature. The control sample contained the right amount of solvent (methanol) instead of the studied compounds. […] The experiment was performed in five replicates (n = 5).

Row | Structure (SMILES) | relative changes in anisotropy in the probe TMA-DPH [1] | IC50 [2] [µM] | antioxidative activity, fold higher than L-(+)-ascorbic acid ([2]; from IC50 values) | antioxidative activity, fold lower than quercetin ([2]; from IC50 values) | IC50 (COX-2; Tris-HCl pH 8.0, room temperature, read-out: IC50 COX-2) [µM] | reduction in intensity of the MC540 probe's fluorescence [1] | IC50 (COX-2) [µM]
1 | CO[C@H]1[C@H](O)[C@@H](O)[C@H](Oc2cc(O)c3c(=O)c(O)c(-c4ccc(O)c(O)c4)oc3c2)O[C@@H]1CO [Q 7-MeGlu, quercetin 7-O-β-D-(4″-O-methyl)glucopyranoside] | 5–10% | 5.47 ± 0.47 | ca. 24 fold | ca. 1.2 fold | 49.2 ± 5.55 |  | 
2 | O=c1c(O)c(-c2ccc(O)c(O)c2)oc2cc(O)cc(O)c12 [Quercetin, 3,3′,4′,5,7-pentahydroxyflavone] | 16–37% | 4.49 ± 0.24 |  |  |  | 29–56% | 17 ± 2.43
